According to publication PMC7828731, “Anti-Aging Potential of Extracts from Washingtonia filifera Seeds” (Plants, 2021):
Converted amounts (≈) assume the structure as drawn.

Target: T1, Collagenase from Clostridium histolyticum
T1 construct: gene colG; commercial native collagenase (Sigma)
Experiment: absorbance at […] nm, FALGPA hydrolysis
Assay type: biochemical, Hathewaya histolytica
Settings: FALGPA 0.8 mM; 0.05 M Tricine, pH 7.5, 0.4 M NaCl, 0.01 M CaCl2; 15 min preincubation

Question: How did the “IC50 (μg/mL) / Collagenase *” value turn out when `O=C(O[C@@H]1Cc2c(O)cc(O)cc2O[C@@H]1c1cc(O)c(O)c(O)c1)c1cc(O)c(O)c(O)c1` [Epigallocatechin gallate] was run?
Answer: 120.8 ± 6.22 µg/mL (≈ 264 µM)
